According to patent US12110289B2, “Heterocyclic compounds, preparation methods and uses thereof” (InventisBio Co., Ltd., priority 2020, dated 2024):
Like-named read-outs stand apart in the source and are kept apart here.

Key:
NCI-H358 xenograft = assay: NSCLC H358 xenograft model, tumor volume; type: in vivo, BALB/c nude mice
Description: (§1) All the procedures related to animal handling, care and the treatment in this study were performed according to the guidelines approved by the Institutional Animal Care and Use Committee (IACUC) of SIPPER B&K following the guidance of the Association for Assessment and Accreditation of Laboratory Animal Care (AAALAC). At the time of routine monitoring, the animals were checked for any effects of tumor growth on normal behavior such as mobility, food and water consumption (by looking only), body weight gain/loss (body weights were measured twice weekly), eye/hair matting and any other abnormal effect. Death and observed clinical signs were recorded on the basis of the numbers of animals within each subset.
(§2) The NCI-H358, SW837, NCI-H2122 tumor cells were purchased from the American Type Culture Collection (ATCC). Cells were maintained in vitro as monolayer cultured in RPMI-1640 or DMEM medium supplemented with 10% fetal bovine serum, 50 IU/ml penicillin/streptomycin (GIBCO) at 37° C. in an atmosphere of 5% CO2 in air. The tumor cells were routinely sub cultured twice weekly by trypsin-EDTA treatment. The cells growing in an exponential growth phase were harvested and counted for tumor inoculation.
(§3) For tumor bearing models, female 6- to 8-week-old athymic BALB/c nude mice were used for human cancer cell lines. Each mouse was inoculated subcutaneously at the right flank with tumor cells (10×10^6) in 0.1 ml of PBS. The treatments were started when the average tumor size reached approximately 200-250 mm^3. Carboplatin, Cisplatin was injected twice a week by i.p. Vehicles and other test articles were given orally as a suspension by gavage once daily during the study or treatment period.
(§4) Tumor volume was calculated by measuring two perpendicular diameters using the following formula: (L×W 2)/2 in which L and W refer to the length and width tumor diameter, respectively. Results are expressed as mean and standard deviation of the mean.

[1] = test system: Lung cancer cell line NCI-H358 containing KRas G12C mutation; assay: Assay for cell proliferation (Cell-titer Glo, 5 days); type: cell-based, human; conditions: for IC50: Homo sapiens, NCI-H358, 120 h, read-out: IC50 (nM), Inhibition of NCI-H358 Cell Proliferation
Outline: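 NCI-H358 (KRas G12C) cells, 2000 per well, attached overnight at 37 °C, 5% CO2, then treated with compound for 5 days at 0.5% DMSO final. Proliferation measured by CellTiter-Glo luminescence after 10 min at RT.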

pooled human hepatocytes = assay: Human hepatocyte clearance study; type: in vitro ADME; conditions: for Human Hepatocyte Remaining Percentage @ 120 min (%): working cell density 2 × 10^6 viable cells/mL
Description: (§5) The in vitro human hepatocyte clearance of compounds described here was studied using pooled human hepatocytes purchased from BioreclamationIVT (Westbury, NY, Cat #X008001, Lot #TQJ). The assay was conducted according to manufacturer's instruction. Briefly, 10 mM stock solutions of test compounds and positive control (Verapamil) were prepared in 100% DMSO. Thawing media (50 mL) used in the study consists of 31 mL Williams E medium (GIBCO Cat #12551-032), 15 mL isotonic percoll (GE Healthcare Cat #17-0891-09), 500 uL 100× GlutaMax (GIBCO Cat #35050), 750 uL HEPES (GIBCO Cat #15630-080), 2.5 mL FBS (Corning Cat #35-076-CVR), 50 uL human insulin (GIBCO Cat #12585-014) and 5 uL dexamethasone (NICPBP). Incubation media is made of Williams E medium supplemented with 1× GlutaMax. Both thawing medium and incubation medium (serum-free) were placed in a 37° C. water bath for at least 15 minutes prior to use. Compound stock solutions were diluted to 100 μM by combining 198 μL of 50% acetonitrile/50% water and 2 μL of 10 mM stock solution. Verapamil was use as positive control in the assay. Vials of cryopreserved hepatocytes were removed from storage and thawed in a 37° C. water bath with gentle shaking. Contents of the vial were poured into the 50 mL thawing medium conical tube. Vials were centrifuged at 100 g for 10 minutes at room temperature. […] […] […] The boiled hepatocytes were used to prepare negative samples. Aliquots of 198 μL hepatocytes were dispensed into each well of a 96-well non-coated plate. The plate was placed in the incubator on an orbital shaker at 500 rpm for approximately 10 minutes. Aliquots of 2 μL of the 100 μM test compound or positive control were added into respective wells of the non-coated 96-well plate to start the reaction. This assay was performed in duplicate. The plate was incubated in the incubator on an orbital shaker at 500 rpm for the designated time points. Twenty-five microliter of contents were transferred and mixed with 6 volumes (150 μL) of cold acetonitrile with IS (200 nM imipramine, 200 nM labetalol and 200 nM diclofenac) to terminate the reaction at time points of 0, 15, 30, 60, 90 and 120 minutes. Samples were centrifuged at 3,220 g for 25 minutes and aliquots of 150 μL of the supernatants were used for LC-MS/MS analysis. For data analysis, all calculations were carried out using Microsoft Excel. Peak areas were determined from extracted ion chromatograms. The in vitro half-life (t1/2) of parent compound was determined by regression analysis of the percent parent disappearance vs. time curve. […] Scaling factors for in vivo intrinsic clearance prediction using human hepatocytes are listed as: liver weight (g liver/kg body weight): 25.7; hepatocyte concentration (10^6 cells/g liver): 99; scaling factor: 2544.3.

[2] = Human hepatocyte clearance study; type: in vitro ADME; conditions: human, pooled cryopreserved human hepatocytes (suspension), working cell density 2 × 10^6 viable cells/mL; for hepatocyte CLint at 1 µM: read-out: Human In vitro Clint (μl/min/10^6 cells); for half-life at 1 µM: read-out: Human In vitro T1/2; for CLint scaled at 1 µM: read-out: Human Scale-up Clint
Description: as §5

SW837 xenograft = assay: Colorectal adenocarcinoma SW837 xenograft model, tumor volume; type: in vivo, BALB/c nude mice
Description: as §1, §2, §3, §4

[3] = Rat PK study, single i.g. dose; type: in vivo; conditions: female, SD, plasma, PO, 10 mg/kg
Description: The pharmacokinetic (PK) profile of compounds following single i.g in SD rat obtained from […] Laboratory Animal Co., LTD of Shanghai was determined. Three female rats of weight around 220 g were used. Compounds were prepared at 1 mg/ml with the formulation of 10% DMSO+10% solutol HS15+80% (10% HPβCD in water). Blood samples (0.2 mL) were collected at 0 h (pre-dose) and 0.25, 0.5, 1, 2, 4, 8, 24 h time points after administration of compounds at the dose of 10 mg/kg. The collected blood samples were centrifuged without delay and the plasma was separated and transferred into tubes before storage at -70° C. prior to analysis. Aliquots of the plasma unknowns, blank and calibration standards were placed in 1.5 mL tubes and mixed with acetonitrile/methanol (1/1, v/v) containing IS. After vortexing for 5 min, each sample was centrifuged at 14000 rpm at 4° C. for 10 min. The supernatant were injected into the LC-MS/MS system. […] Eluates were analyzed using an API4000 Q-Trap mass spectrometer with a TurboIonSpray interface. Chromatographic separation was done with a mobile phase composed of water with 0.1% formic acid (solution A) and acetonitrile with 0.1% formic acid (solution B). The mobile phase was delivered at a flow rate of 0.6 mL/min, using a stepwise gradient elution program. To improve the sensitivity of the test compound screening, a MRM method in positive electrospray ionization mode was employed. Mass spectrometry data was acquired and analyzed using AB Sciex Analyst version 1.6.2 software. The pharmacokinetic parameters were derived using standard noncompartmental methods with Phoenix WinNonLin Professional Version 8.1.

| IC50 ([1]; NCI-H358, 5 days, Cell-titer Glo) [nM] | SMILES | reduction of tumor volume, combined treatment vs either agent alone (NCI-H358 xenograft; Compound 145 at 5 mg/kg combined with carboplatin at 30 mg/kg, FIG. 4) | Human Hepatocyte Remaining Percentage @ 120 min (%) (pooled human hepatocytes) | hepatocyte CLint at 1 µM [2] [µL/min/1e6 cells] | half-life at 1 µM [2] [h] | CLint scaled at 1 µM [2] [mL/min/kg] | reducing tumor volume compared with AMG510 (NCI-H358 xenograft; 30 mg/kg oral once daily vs AMG510 at 30 mg/kg, FIG. 2) | reducing tumor volume compared with AMG510 (SW837 xenograft; 60 mg/kg oral once daily vs AMG510 at 60 mg/kg, FIG. 1) | reduction of tumor volume, combined treatment vs either agent alone (SW837 xenograft; Compound 44 at 30 mg/kg combined with trametinib at 1 mg/kg, FIG. 6) | potency in inhibiting KRAS G12C compared with corresponding isopropyl analogs [1] | IC50 [1] [nM] | fold more potent: 2-amino-6-fluoro-phenyl compound vs. corresponding 2-fluoro-phenyl compound at R8 ([1]; NCI-H358 IC50 comparison) | human hepatocyte clearance profile compared to control compounds (pooled human hepatocytes) | AUC(0-t) ([3]; read-out: Rat PO (10 mpk) AUC last) [µM·h] | Cmax ([3]; read-out: Rat PO (10 mpk) Cmax) [nM] | bioavailability ([3]; read-out: Rat PO (10 mpk) F %) [%] |
| --- | --- | --- | --- | --- | --- | --- | --- | --- | --- | --- | --- | --- | --- | --- | --- | --- |
| 1.4 | C=CC(=O)N1C[C@H](C)N(c2nc(=O)n(-c3c(F)cc4c(ncn4C)c3C(C)C)c3nc(-c4c(N)cccc4F)c(F)cc23)C[C@H]1C (atropisomer, axis not shown) [Compound 145] | much better reduction of tumor volume | 82.9 | 1 | 11.5 | 2.6 | – | – | – | – | – | – | – | – | – | – |
| – | C=CC(=O)N1C[C@H](C)N(c2nc(=O)n(-c3c(C4CC4)ncnc3C3CC3)c3nc(-c4c(N)cccc4F)c(F)cc23)C[C@H]1C [Compound 44] | – | 61.7 | 4 | 2.87 | 10.2 | more effective than AMG510 | more effective than AMG510 | much better reduction of tumor volume | better potency | 2.1 | about 19 × | better human hepatocyte clearance profile | 4.3 | 1380 | 71 |
